# Measured values taken from patent publication US20230286923A1 (INIPHARM, INC., priority 2020, published 2023).
# Target: HSD17B13 enzyme (Homo sapiens (Human), UniProt Q7Z5P4)
# Assay: Estrone detection assay (LC/MS, conversion of estradiol to estrone) for HSD17B13 activity
# Assay type: biochemical
# Conditions: substrate 4 µM estradiol, 6 mM NAD+, 30 nM enzyme
# Protocol: The liquid chromatography/mass spectrometry (LC/MS) estrone detection assay monitors the conversion of estradiol to estrone by HSD17B13. This assay was undertaken in a 96wp format (Eppendorf deep well Plate 96/500) in an 80 µl reaction volume containing: 4 µM of Estradiol (E2; Cayman; #10006315), 6 mM NAD^+ (Sigma; #N0623) and 30 nM HSD17B13 enzyme (in-house; E. coli expressed His-tagged, purified, soluble protein) in a reaction containing 1 M potassium phosphate buffer pH 7.4, with 0.5% vehicle (DMSO). Reactions were incubated for 2 hours at 26.5° C., and estradiol (E2) conversion to estrone (E1) was quantitated by LC-MS/MS based analyte detection for both E2 and E1 using LCMS grade reagents.
# Reactions were terminated by the addition of two volumes of acetonitrile (MeCN; LCMS grade; CAS# 75/05/8) containing deuterated (D4)-E1 used as internal standard (Clear Synth; #CS-T-54273; 500 ng/mL final concentration). Samples were applied to pre-prepared Bond Elut-C18 extraction cartridges (3 mL; Agilent; #12102028), washed and eluted in MeCN. Eluates were dried under nitrogen and re-suspended in 60% methanol (LCMS grade methanol; CAS# 67/56/1) before submission for analysis. Aqueous linearity for E2 and E1 were included for quantification.
# Analysis of samples was undertaken on a XBridge BEH C18 column (Waters; #186003033) using 0.1% Diethyl Amine in MeCN (mobile phase A; DEA CAS# 109-89-7) and 0.1% Diethyl Amine in milli-Q water (mobile phase B) in a 3 min gradient allowing 25%B. Analytes were detected in negative mode using MRM analysis, with E2 having a RT of 1.85 min and E1 having a RT of 2 min. Activity of the enzyme, in the absence of NAD^+, was used to evaluate specificity of conversion. Enzyme activity in the presence of test samples was expressed as a percentage of the uninhibited enzyme activity, and plotted versus inhibitor concentration. Non-linear regression was performed using a four-parameter logistic model and GraphPad Prism software (GraphPad Software, La Jolla, CA). All assessments were undertaken in duplicate evaluations and pooled during extraction process and subsequently injected as duplicates for LC-MS/MS analysis.
# HSD17B13 enzyme, sequence (Q7Z5P4 20-300): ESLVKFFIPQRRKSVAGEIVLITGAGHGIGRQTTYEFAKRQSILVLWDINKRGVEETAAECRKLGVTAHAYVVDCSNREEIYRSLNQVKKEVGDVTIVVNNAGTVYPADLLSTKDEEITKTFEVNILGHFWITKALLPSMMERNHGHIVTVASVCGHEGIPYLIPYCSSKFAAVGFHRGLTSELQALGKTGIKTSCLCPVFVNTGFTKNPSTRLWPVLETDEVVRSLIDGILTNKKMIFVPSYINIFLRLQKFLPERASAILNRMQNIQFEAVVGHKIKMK
row,Structure (SMILES),IC50 [µM]
1,"CC(C)(C)CCn1cnc2cccc(NC(=O)c3cnc(O)c(Cl)c3)c2c1=O [Example 12, 5-chloro-N-(3-(3,3-dimethylbutyl)-4-oxo-3,4-dihydroquinazolin-5-yl)-6-hydroxynicotinamide]",1 to 10
2,"CC(C)(C)CCn1cnc2cccc(NC(=O)c3ccc(-c4nnn[nH]4)c(Cl)c3)c2c1=O [Example 13, 3-chloro-N-(3-(3,3-dimethylbutyl)-4-oxo-3,4-dihydroquinazolin-5-yl)-4-(1H-tetrazol-5-yl)benzamide]",1 to 10
3,"O=C(Nc1cccc2ncn(Cc3ccc(F)cc3)c(=O)c12)c1cc(Cl)c(O)c(C(F)(F)F)c1 [Example 35, 3-chloro-N-(3-(4-fluorobenzyl)-4-oxo-3,4-dihydroquinazolin-5-yl)-4-hydroxy-5-(trifluoromethyl)benzamide]",0.1 to 1
4,"O=C(Nc1cccc2ncn(Cc3nncs3)c(=O)c12)c1cc(Cl)c(O)c(C(F)(F)F)c1 [Example 36, N-(3-((1,3,4-thiadiazol-2-yl)methyl)-4-oxo-3,4-dihydroquinazolin-5-yl)-3-chloro-4-hydroxy-5-(trifluoromethyl)benzamide]",1 to 10
5,"N#Cc1cc(C(=O)Nc2cccc3ncn(Cc4ccccc4F)c(=O)c23)cc(Cl)c1O [Example 37, 3-chloro-5-cyano-N-(3-(2-fluorobenzyl)-4-oxo-3,4-dihydroquinazolin-5-yl)-4-hydroxybenzamide]",0.1 to 1
6,"C[C@@H](c1cccc(F)c1)n1cnc2cccc(NC(=O)c3cc(Cl)c(O)c(C#N)c3)c2c1=O [Example 38, (S)-3-chloro-5-cyano-N-(3-(1-(3-fluorophenyl)ethyl)-4-oxo-3,4-dihydroquinazolin-5-yl)-4-hydroxybenzamide]",0.1 to 1
7,"O=C(Nc1cccc2ncn(Cc3ccccc3C(F)(F)F)c(=O)c12)c1cc(Cl)c(O)c(C(F)(F)F)c1 [Example 39, 3-chloro-4-hydroxy-N-(4-oxo-3-(2-(trifluoromethyl)benzyl)-3,4-dihydroquinazolin-5-yl)-5-(trifluoromethyl)benzamide]",0.1 to 1
8,"O=C(Nc1cccc2ncn(Cc3cccc(F)c3)c(=O)c12)c1cc(C(F)(F)F)c(O)c(C(F)(F)F)n1 [Example 40, N-(3-(3-fluorobenzyl)-4-oxo-3,4-dihydroquinazolin-5-yl)-5-hydroxy-4,6-bis(trifluoromethyl)picolinamide]",0.1 to 1
9,"O=C(Nc1cccc2ncn(Cc3ccccc3F)c(=O)c12)c1cc(Cl)c(O)c(C(F)(F)F)c1 [Example 41, 3-chloro-N-(3-(2-fluorobenzyl)-4-oxo-3,4-dihydroquinazolin-5-yl)-4-hydroxy-5-(trifluoromethyl)benzamide]",0.1 to 1
10,O=C(Nc1cccc2ncn(Cc3cocn3)c(=O)c12)c1cc(Cl)c(O)c(C(F)(F)F)c1 [Example 42],1 to 10
11,"C[C@@H](c1cccc(F)c1)n1cnc2cccc(NC(=O)c3cc(Cl)c(O)c(C(F)(F)F)n3)c2c1=O [Example 43, (S)-4-chloro-N-(3-(1-(3-fluorophenyl)ethyl)-4-oxo-3,4-dihydroquinazolin-5-yl)-5-hydroxy-6-(trifluoromethyl)picolinamide]",0.1 to 1
12,"N#Cc1cc(C(=O)Nc2cccc3ncn(Cc4ccc(F)cc4)c(=O)c23)cc(F)c1O [Example 44, 3-cyano-5-fluoro-N-(3-(4-fluorobenzyl)-4-oxo-3,4-dihydroquinazolin-5-yl)-4-hydroxybenzamide]",≤ 0.1
13,"O=C(Nc1cccc2ncn(Cc3ccccc3F)c(=O)c12)c1cc(Cl)c(O)c(C(F)(F)F)n1 [Example 45, 4-chloro-N-(3-(2-fluorobenzyl)-4-oxo-3,4-dihydroquinazolin-5-yl)-5-hydroxy-6-(trifluoromethyl)picolinamide]",0.1 to 1
14,"O=C(Nc1cccc2ncn(Cc3ccc(C(F)(F)F)cc3)c(=O)c12)c1cc(Cl)c(O)c(C(F)(F)F)c1 [Example 46, 3-chloro-4-hydroxy-N-(4-oxo-3-(4-(trifluoromethyl)benzyl)-3,4-dihydroquinazolin-5-yl)-5-(trifluoromethyl)benzamide]",0.1 to 1
15,"C[C@@H](c1cccc(F)c1)n1cnc2cccc(NC(=O)c3cc(F)c(O)c(C#N)c3)c2c1=O [Example 47, (S)-3-cyano-5-fluoro-N-(3-(1-(3-fluorophenyl)ethyl)-4-oxo-3,4-dihydroquinazolin-5-yl)-4-hydroxybenzamide]",≤ 0.1
16,"N#Cc1cc(C(=O)Nc2cccc3ncn(Cc4cccc(OC(F)(F)F)c4)c(=O)c23)cc(Cl)c1O [Example 48, 3-chloro-5-cyano-4-hydroxy-N-(4-oxo-3-(3-(trifluoromethoxy)benzyl)-3,4-dihydroquinazolin-5-yl)benzamide]",0.1 to 1
17,"N#Cc1cc(C(=O)Nc2cccc3ncn(Cc4cccc(F)c4)c(=O)c23)cc(Cl)c1O [Example 49, 3-chloro-5-cyano-N-(3-(3-fluorobenzyl)-4-oxo-3,4-dihydroquinazolin-5-yl)-4-hydroxybenzamide]",0.1 to 1
18,"O=C(Nc1cccc2ncn(Cc3ccccc3OC(F)(F)F)c(=O)c12)c1cc(Cl)c(O)c(C(F)(F)F)n1 [Example 50, 4-chloro-5-hydroxy-N-(4-oxo-3-(2-(trifluoromethoxy)benzyl)-3,4-dihydroquinazolin-5-yl)-6-(trifluoromethyl)picolinamide]",0.1 to 1
19,"O=C(Nc1cccc2ncn(Cc3ccc(C(F)(F)F)cc3)c(=O)c12)c1cc(Cl)c(O)c(C(F)(F)F)n1 [Example 51, 4-chloro-5-hydroxy-N-(4-oxo-3-(4-(trifluoromethyl)benzyl)-3,4-dihydroquinazolin-5-yl)-6-(trifluoromethyl)picolinamide]",1 to 10
20,"N#Cc1cc(C(=O)Nc2cccc3ncn(Cc4ccccc4C(F)(F)F)c(=O)c23)cc(F)c1O [Example 52, 3-cyano-5-fluoro-4-hydroxy-N-(4-oxo-3-(2-(trifluoromethyl)benzyl)-3,4-dihydroquinazolin-5-yl)benzamide]",≤ 0.1
21,"N#Cc1cc(C(=O)Nc2cccc3ncn(Cc4ccc(OC(F)(F)F)cc4)c(=O)c23)cc(F)c1O [Example 53, 3-cyano-5-fluoro-4-hydroxy-N-(4-oxo-3-(4-(trifluoromethoxy)benzyl)-3,4-dihydroquinazolin-5-yl)benzamide]",0.1 to 1
22,"NC(=O)c1cc(C(=O)Nc2cccc3ncn(Cc4cccc(C(F)(F)F)c4)c(=O)c23)cc(F)c1O [Example 54, 5-fluoro-4-hydroxy-N1-(4-oxo-3-(3-(trifluoromethyl)benzyl)-3,4-dihydroquinazolin-5-yl)isophthalamide]",1 to 10
23,"O=C(Nc1cccc2ncn(Cc3ccccc3C(F)(F)F)c(=O)c12)c1cc(Cl)c(O)c(C(F)(F)F)n1 [Example 55, 4-chloro-5-hydroxy-N-(4-oxo-3-(2-(trifluoromethyl)benzyl)-3,4-dihydroquinazolin-5-yl)-6-(trifluoromethyl)picolinamide]",0.1 to 1
24,"N#Cc1cc(C(=O)Nc2cccc3ncn(Cc4cccc(OC(F)(F)F)c4)c(=O)c23)cc(F)c1O [Example 56, 3-cyano-5-fluoro-4-hydroxy-N-(4-oxo-3-(3-(trifluoromethoxy)benzyl)-3,4-dihydroquinazolin-5-yl)benzamide]",0.1 to 1
25,"N#Cc1cc(C(=O)Nc2cccc3ncn(Cc4cccc(C(F)(F)F)c4)c(=O)c23)cc(F)c1O [Example 57, 3-cyano-5-fluoro-4-hydroxy-N-(4-oxo-3-(3-(trifluoromethyl)benzyl)-3,4-dihydroquinazolin-5-yl)benzamide]",≤ 0.1
26,"N#Cc1cc(C(=O)Nc2cccc3ncn(Cc4ccc(OC(F)(F)F)cc4)c(=O)c23)cc(Cl)c1O [Example 58, 3-chloro-5-cyano-4-hydroxy-N-(4-oxo-3-(4-(trifluoromethoxy)benzyl)-3,4-dihydroquinazolin-5-yl)benzamide]",0.1 to 1
27,"N#Cc1cc(C(=O)Nc2cccc3ncn(Cc4ccc(C(F)(F)F)cc4)c(=O)c23)cc(F)c1O [Example 59, 3-cyano-5-fluoro-4-hydroxy-N-(4-oxo-3-(4-(trifluoromethyl)benzyl)-3,4-dihydroquinazolin-5-yl)benzamide]",≤ 0.1
28,"N#Cc1ccccc1Cn1cnc2cccc(NC(=O)c3cc(F)c(O)c(C#N)c3)c2c1=O [Example 60, 3-cyano-N-{3-[(2-cyanophenyl)methyl]-4-oxo-3,4-dihydroquinazolin-5-yl}-5-fluoro-4-hydroxybenzamide]",≤ 0.1
29,"N#Cc1cc(C(=O)Nc2cccc3ncn(Cc4cc[nH]n4)c(=O)c23)cc(F)c1O [Example 61, N-(3-((1H-pyrazol-3-yl)methyl)-4-oxo-3,4-dihydroquinazolin-5-yl)-3-cyano-5-fluoro-4-hydroxybenzamide]",0.1 to 1
30,"CS(=O)(=O)c1ccccc1Cn1cnc2cccc(NC(=O)c3cc(F)c(O)c(C#N)c3)c2c1=O [Example 62, 3-cyano-5-fluoro-4-hydroxy-N-(3-(2-(methylsulfonyl)benzyl)-4-oxo-3,4-dihydroquinazolin-5-yl)benzamide]",0.1 to 1
